Laboratory results reported in patent US10213434B2, “Use of factor Xa inhibitors for regulating glycemia” (VAIOMER, priority 2015, dated 2019).
Where two headings read alike, the source gives them in different places.

Columns and labels:
[1] = low = typically inferior or equal to 20%, cited from earlier work
HFD C57/BL6 mice [2] = assay: Oral glucose tolerance test (OGTT) after 4 weeks of oral treatment in high fat diet mice; format: in vivo
Experimental: FIG. 3: NC or HFD C57/BL6 mice were gavaged daily with saline or one of three doses of Rivaroxaban (1, 2.5 or 5; n=5 per group) for 4 weeks. Graphs show oral glucose tolerance test (OGTT) (1.5 g/kg) after 4 weeks of chronic treatment with Rivaroxaban. NC-NaCl: control C57/BL6 mice fed with normal chow and gavaged with saline for 4 weeks. HFD-NaCl: control C57/BL6 mice fed with high fat diet and gavaged with saline for 4 weeks. HFD-X1 mg/kg: C57/BL6 mice fed with high fat diet and gavaged with 1 mg/kg Rivaroxaban for 4 weeks. HFD-X2.5 mg/kg: C57/BL6 mice fed with high fat diet and gavaged with 2.5 mg/kg Rivaroxaban for 4 weeks. HFD-X5 mg/kg: C57/BL6 mice fed with high fat diet and gavaged with 5 mg/kg Rivaroxaban for 4 weeks.
(§1) FIG. 4: NC or HFD C57/BL6 mice were gavaged daily with saline or one of four doses of Rivaroxaban (1, 2.5 or 5; n=5 per group) for 4 weeks. Histograms show glucose intolerance corresponding index (μM/min) from 30 min to 90 min after glucose administration. NC saline: control C57/BL6 mice fed with normal chow and gavaged with saline for 4 weeks. HFD saline: control C57/BL6 mice fed with high fat diet and gavaged with saline for 4 weeks. HFD+X1: C57/BL6 mice fed with high fat diet and gavaged with 1 mg/kg Rivaroxaban for 4 weeks. HFD+X2.5: C57/BL6 mice fed with high fat diet and gavaged with 2.5 mg/kg Rivaroxaban for 4 weeks. HFD+X5: C57/BL6 mice fed with high fat diet and gavaged with 5 mg/kg Rivaroxaban for 4 weeks. Data were analyzed by either one or two-way ANOVA with Tukey's multiple comparison tests and presented as mean±S.E.M. *P<0.05, **P<0.01, ***P<0.001.
FIG. 5: NC or HFD C57/BL6 mice were gavaged daily with saline or one of […] of Rivaroxaban (1, 2.5 or 5; n=5 per group) for 4 weeks. Histograms show diabetes and glucose intolerance corresponding index (μM/min) from 30 min before to 90 min after glucose administration. NC saline: control C57/BL6 mice fed with normal chow and gavaged with saline for 4 weeks. HFD saline: control C57/BL6 mice fed with high fat diet and gavaged with saline for 4 weeks. […] Data were analyzed by either one or two-way ANOVA with Tukey's multiple comparison tests and presented as mean±S.E.M. *P<0.05, **P<0.01, ***P<0.001. […]
(§2) An Oral Glucose Tolerance Test (OGTT) was performed on 6-hfasted mice. […] Glycemia was measured with a glucometer (Roche Diagnostics) from blood collected at the tail vein 30 min before the glucose […] and 15, 30, 60, 90 and 120 min after the gavage. The glucose tolerance index was calculated by adding the glycemic values from 30 to 90 min after glucose gavage divided by the corresponding duration.
(§3) After 4 weeks of treatment the inventors measured fasting glycaemia and glucose intolerance (FIGS. 7 and 8).

HFD C57/BL6 mice [3] = assay: Fasting glycemia after 4 weeks of oral treatment in high fat diet mice; format: in vivo
Experimental: as §1, with “2:” for “4:”, “three” for “four”, “fasting glycemia” for “glucose intolerance corresponding index (μM/min) from 30 min to 90 min”, “4 weeks of chronic treatment with Rivaroxaban.” for “glucose administration.”, “***P<0.001. […]” for “***P<0.001.”
as §2, §3

mouse model of diabetes = conditions: administered into a mouse model of diabetes; cited from earlier work
HFD mice = assay: Bacterial translocation: 16S rDNA copies in mesenteric adipose tissue of HFD mice; format: in vivo; conditions: Rivaroxaban 0.2, 0.5 and 1 mg/kg oral gavage daily, 4 weeks, vs non-treated HFD mice, FIG. 6
Experimental: To explore whether intestinal FXa inhibition regulates intestinal permeability the inventors have treated HFD mice daily during 4 weeks with 3 different doses of Rivaroxaban by oral gavage. The inventors chose low Rivaroxaban concentrations (0.2, 0.5 and 1 mg/kg) to have an intestinal effect only and avoid systemic anti-coagulation. After 4 weeks of treatment the number of 16S rDNA copies was measured in mesenteric adipose tissue in order to evaluate bacterial translocation.

CC(=N)N1CC[C@H](Oc2ccc([C@H](Cc3ccc4ccc(C(=N)N)cc4c3)C(=O)O)cc2)C1 [DX-9065]
oral bioavailability [1]: low oral bioavailability

COC(=O)[C@H](Cc1cccc(C(=N)N)c1)[C@@H](C)NC(=O)c1ccc(-c2cc[n+]([O-])cc2)cc1 [Otamixaban, otamixaban]
glucose intolerance (OGTT) (HFD C57/BL6 mice [2]; Otamixaban 1 and 5 mg/kg oral gavage, FIG. 8): reduces glucose intolerance
oral bioavailability [1]: low bioavailability
oral bioavailability ([1]; listed as otamixaban): low oral bioavailability
fasting glycaemia (HFD C57/BL6 mice [3]; HFD mice, Otamixaban 1 and 5 mg/kg oral gavage, FIG. 7): reduces fasting glycaemia

O=C(NC[C@H]1CN(c2ccc(N3CCOCC3=O)cc2)C(=O)O1)c1ccc(Cl)s1 [Rivaroxaban, rivaroxaban]
glucose intolerance index (30 min to 90 min after glucose administration), HFD-induced increase (HFD C57/BL6 mice [2]; 5 mg/kg Rivaroxaban oral gavage, FIG. 4): reduced
diabetes and glucose intolerance index (30 min before to 90 min after glucose administration) (HFD C57/BL6 mice [2]; 5 mg/kg Rivaroxaban oral gavage, vs HFD saline mice, FIG. 5): significant reduction
blood glucose concentration following oral glucose challenge (OGTT) (HFD C57/BL6 mice [2]; oral Rivaroxaban 1, 2.5 or 5 mg/kg, vs HFD mice gavaged with saline, glucose 1.5 g/kg, FIG. 3): reduced
antithrombotic effects (mouse model of diabetes): displayed antithrombotic effects
bacterial translocation (number of 16S rDNA copies in mesenteric adipose tissue) (HFD mice): reduce bacterial translocation
fasting glycemia (increase induced by high fat diet) (HFD C57/BL6 mice [3]; HFD C57/BL6 mice, Rivaroxaban 1, 2.5 or 5 mg/kg oral gavage, FIG. 2): abolished

CO[C@H]1O[C@H](COS(=O)(=O)O)[C@@H](O[C@@H]2O[C@@H](C(=O)O)[C@@H](O[C@H]3O[C@H](COS(=O)(=O)O)[C@@H](O[C@@H]4O[C@H](C(=O)O)[C@@H](O[C@H]5O[C@H](COS(=O)(=O)O)[C@@H](OC)[C@H](OC)[C@H]5NC(=O)CCCCCNC(=O)CCCC[C@@H]5SC[C@@H]6NC(=O)N[C@@H]65)[C@H](OC)[C@H]4OC)[C@H](OS(=O)(=O)O)[C@H]3OS(=O)(=O)O)[C@H](OC)[C@H]2OC)[C@H](OS(=O)(=O)O)[C@H]1OS(=O)(=O)O [idrabiotaparinux]
oral bioavailability [1]: low oral bioavailability

CO[C@H]1O[C@H](COS(=O)(=O)O)[C@@H](O[C@@H]2O[C@@H](C(=O)O)[C@@H](O[C@H]3O[C@H](COS(=O)(=O)O)[C@@H](O[C@@H]4O[C@H](C(=O)O)[C@@H](O[C@H]5O[C@H](COS(=O)(=O)O)[C@@H](OC)[C@H](OC)[C@H]5OC)[C@H](OC)[C@H]4OC)[C@H](OS(=O)(=O)O)[C@H]3OS(=O)(=O)O)[C@H](OC)[C@H]2OC)[C@H](OS(=O)(=O)O)[C@H]1OS(=O)(=O)O [idraparinux]
oral bioavailability [1]: low oral bioavailability

enoxaparin
oral bioavailability [1]: low oral bioavailability
